The experiment deals with T1, human histamine H3 receptor (Homo sapiens, UniProt Q9Y5N1).
T1 construct: expressed in transfected cells; membranes prepared from cell pellets
In words: [3H]-N-methylhistamine binding to membranes of histamine H3 receptor-expressing SK-N-MC cells. The protocol:
Thus in the present invention receptor binding was determined using the human histamine H3 receptor (See Lovenberg et al Mol. Pharmacol. 1999, 1107). Screening using the human receptor is particularly important for the identification of new therapies for the treatment of human disease. Conventional binding assays for example are determined using rat synaptosomes (Garbarg et al J. Pharmacol. Exp. Ther. 1992, 263, 304), rat cortical membranes (West et al Mol. Pharmacol. 1990, 610), and guinea pig brain (Korte et al Biochem. Biophys. Res. Commun. 1990, 978).
Transfection of Cells with Human Histamine Receptor
A 10 cm tissue culture dish with a confluent monolayer of SK-N-MC cells was split two days prior to transfection. Using sterile technique the media was removed and the cells were detached from the dish by the addition of trypsin. One fifth of the cells were then placed onto a new 10 cm dish. Cells were grown in a 37° C. incubator with 5% CO2 in Minimal Essential Media Eagle with 10% Fetal Bovine Serum. After two days cells were approximately 80% confluent. These were removed from the dish with trypsin and pelleted in a clinical centrifuge. The pellet was then re-suspended in 400 μL complete media and transferred to an electroporation cuvette with a 0.4 cm gap between the electrodes (Bio-Rad #165–2088). One microgram of supercoiled H3 receptor cDNA was added to the cells and mixed. The voltage for the electroporation was set at 0.25 kV, the capacitance was set at 960 μF. After electroporation the cells were diluted into 10 mL complete media and plated onto four 10 cm dishes. Because of the variability in the efficiency of electroporation, four different concentrations of cells were plated. The ratios used were; 1:20, 1:10, 1:5, with the remainder of the cells being added to the fourth dish. The cells were allowed to recover for 24 hours before adding the selection media (complete media with 600 μg/mL G418). After 10 days dishes were analyzed for surviving colonies of cells. Dishes with well isolated colonies were used. Cells from individual colonies were isolated and tested. SK-N-MC cells were used because they give efficient coupling for inhibition of adenylate cyclase. The clones that gave the most robust inhibition of adenylate cyclase in response to histamine were used for further study.
[^3H]-N-methylhistamine Binding
Cell pellets from histamine H3 receptor-expressing SK-N-MC cells were homogenized in 20 mM TrisHCI/0.5 mM EDTA. Supernatants from a 800 g spin were collected, recentrifuged at 30,000 g for 30 minutes. Pellets were re-homogenized in 50 mM Tris/5 mM EDTA (pH 7.4). Membranes were incubated with 0.8 nM [^3H]-N-methylhistamine plus/minus test compounds for 45 min at 25° C. and harvested by rapid filtration over GF/C glass fiber filters (pretreated with 0.3% polyethylenimine) followed by four washes with ice cold buffer. Filters were dried, added to 4 mL scintillation cocktail and then counted on a liquid scintillation counter. Non-specific binding was defined with 10 μM histamine. The pKi values were calculated based on a Kd of 800 pM and a ligand concentration ([L]) of 800 pM according to the formula: Ki=(IC50)/(1+([L]/(Kd))

[1] abbreviates: 0.8 nM [3H]-N-methylhistamine, 45 min at 25° C., SK-N-MC cell membranes, Ki=(IC50)/(1+([L]/(Kd)), read-out: Ki.
The mark [2] stands for this setting: 0.8 nM [3H]-N-methylhistamine, 45 min at 25° C., SK-N-MC cell membranes, […], read-out: Ki.

Counter-ions that a name gives are not always drawn. Like-named read-outs stand apart in the source and are kept apart here.

This note sets out measurements from patent US7186732B2, “Non-imidazole aryloxyalkylamines” (Ortho-McNeil Pharmaceutical, Inc., priority 2000, dated 2007).

T1 sequence (Q9Y5N1 whole entry): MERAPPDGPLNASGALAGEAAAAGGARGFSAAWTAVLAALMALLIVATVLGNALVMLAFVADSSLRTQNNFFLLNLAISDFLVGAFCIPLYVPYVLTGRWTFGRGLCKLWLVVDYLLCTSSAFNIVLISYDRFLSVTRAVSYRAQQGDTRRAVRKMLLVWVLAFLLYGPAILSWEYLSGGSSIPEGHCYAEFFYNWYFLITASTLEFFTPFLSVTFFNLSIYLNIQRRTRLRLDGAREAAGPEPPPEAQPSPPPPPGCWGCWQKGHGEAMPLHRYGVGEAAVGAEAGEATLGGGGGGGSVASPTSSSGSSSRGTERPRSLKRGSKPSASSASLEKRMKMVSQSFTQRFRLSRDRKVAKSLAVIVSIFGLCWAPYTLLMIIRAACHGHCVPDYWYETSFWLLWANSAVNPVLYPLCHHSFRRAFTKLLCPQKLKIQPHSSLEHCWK

For `C(=C1CCN(Cc2ccccc2OCCCN2CCCCC2)CC1)c1ccccc1` [Example 70, 1-{3-[2-(4-Benzylidene-piperidin-1-ylmethyl)-phenoxy]-propyl}-piperidine], the Ki under setting [1] was found to be 380 nM.
Take `Brc1ccc2c(c1)CCN2C1CCN(Cc2ccc(OCCCN3CCCCC3)cc2)CC1` [Example 63, 5-Bromo-1-{1-[4-(3-piperidin-1-yl-propoxy)-benzyl]-piperidin-4-yl}-2,3-dihydro-1H-indole]: the inhibition constant (Ki) under setting [2] amounted to 3 nM.
Take `c1cc(OCCN2CCCCC2)ccc1OCCCN1CCCCC1` [Example 30, 1-{3-[4-(2-Piperidin-1-yl-ethoxy)-phenoxy]-propyl}-piperidine]: the Ki under setting [1] is 0.4 nM.
Turning to `CC(C)N1CCN(Cc2ccc(OCCCN3CCCCC3)cc2)CC1` [Example 88, 1-Isopropyl-4-[4-(3-piperidin-1-yl-propoxy)-benzyl]-piperazine], the Ki under setting [1] was found to be 2 nM.
As for `c1cc(-c2ccc(OCCCN3CCCCC3)cc2)n(CCCN2CCCCC2)c1` [Example 96, 1-(3-{4-[1-(3-Piperidin-1-yl-propyl)-1H-pyrrol-2-yl]-phenoxy}-propyl)-piperidine], the Ki under setting [1] is 1.5 nM.
Regarding `CN(CCc1ccccc1)C1CCN(Cc2ccc(OCCCN3CCCCC3)cc2)CC1` [Example 42, Methyl-phenethyl-{1-[4-(3-piperidin-1-yl-propoxy)-benzyl]-piperidin-4-yl}-amine], the inhibitory constant (Ki) under setting [1] turned out to be 1.1 nM.
For the compound `c1cc(OCCCN2CCCCC2)ccc1CN1CCCC1` [Example 48, 1-[3-(4-Pyrrolidin-1-ylmethyl-phenoxy)-propyl]-piperidine], under setting [1], the Ki was found to be 1.2 nM.
Turning to `c1cc(N2CCNCC2)ccc1OCCCN1CCCC1` [Example 23, 1-[4-(3-Pyrrolidin-1-yl-propoxy)-phenyl]-piperazine hydrochloride], under setting [2], the Ki came to 1.3 nM.
As for `C(=C1CCN(Cc2cccc(OCCCN3CCCCC3)c2)CC1)c1ccccc1` [Example 71, 1-{3-[3-(4-Benzylidene-piperidin-1-ylmethyl)-phenoxy]-propyl}-piperidine], the inhibition constant Ki under setting [1] is 1.8 nM.
Regarding `OCCC1CCN(Cc2ccc(OCCCN3CCCCC3)cc2)CC1` [Example 46, 2-{1-[4-(3-Piperidin-1-yl-propoxy)-benzyl]-piperidin-4-yl}-ethanol], under setting [2], the Ki was found to be 1.2 nM.
Consider `c1cc(OCCCN2CCOCC2)ccc1CN1CCCCC1` [Example 51, 4-[3-(4-Piperidin-1-ylmethyl-phenoxy)-propyl]-morpholine], for which the Ki under setting [1] is 4 nM.
The same measure, in the same setting: to `c1ccc(NCc2cccc(OCCCN3CCCCC3)c2)nc1` [Example 66, [3-(3-Piperidin-1-yl-propoxy)-benzyl]-pyridin-2-yl-amine] belongs 8 nM; to `CN(CCc1ccccn1)Cc1ccc(OCCCN2CCCCC2)cc1` [Example 78, Methyl-[4-(3-piperidin-1-yl-propoxy)-benzyl]-(2-pyridin-2-yl-ethyl)-amine], 1 nM.
Turning to `c1ccc(CN2CCN(Cc3ccc(OCCCN4CCCCC4)cc3)CC2)cc1` [Example 90, 1-Benzyl-4-[4-(3-piperidin-1-yl-propoxy)-benzyl]-piperazine], the Ki under setting [2] was 0.9 nM.
For `c1cc(OCCCN2CCCCC2)ccc1CN1CCCCCCCCCCCC1` [Example 45, 1-[4-(3-Piperidin-1-yl-propoxy)-benzyl]-azacyclotridecane], under setting [1], the inhibitory constant (Ki) was determined as 2.5 nM.
The same measure, in the same setting: as for `CN(C)Cc1ccc(OCCCN2CCCCC2)cc1` [Example 59, Dimethyl-[4-(3-piperidin-1-yl-propoxy)-benzyl]-amine], the figure is 2 nM.
As for `c1ccc2c(c1)ncn2C1CCN(Cc2ccc(OCCCN3CCCCC3)cc2)CC1` [Example 60, 1-{1-[4-(3-Piperidin-1-yl-propoxy)-benzyl]-piperidin-4-yl}-1H-benzoimidazole], the inhibitory constant (Ki) under setting [2] is 2 nM.
Regarding `c1ccc(N(CCN2CCCC2)C2CCN(Cc3ccc(OCCCN4CCCCC4)cc3)CC2)nc1` [Example 38, {1-[4-(3-Piperidin-1-yl-propoxy)-benzyl]-piperidin-4-yl}-pyridin-2-yl-(2-pyrrolidin-1-yl-ethyl)-amine], the Ki under setting [2] was determined as 1.2 nM.
Regarding `c1ccc2c(c1)CCCN2Cc1ccc(OCCCN2CCCCC2)cc1` [Example 95, 1-[4-(3-Piperidin-1-yl-propoxy)-benzyl]-1,2,3,4-tetrahydro-quinoline], the Ki (0.8 nM [3H]-N-methylhistamine, 45 min at 25° C., SK-N-MC cell membranes, unit given as nm, read-out: Ki) was determined as 4.8 nM.
For `c1ccc(NCc2ccc(OCCCN3CCCCC3)cc2)cc1` [Example 62, Phenyl-[4-(3-piperidin-1-yl-propoxy)-benzyl]-amine], the Ki under setting [1] came out at 7 nM.
Same read-out and setting: as for `CN(CCc1ccccc1)Cc1cccc(OCCCN2CCCCC2)c1` [Example 74, Methyl-phenethyl-[3-(3-piperidin-1-yl-propoxy)-benzyl]-amine], the figure is 3 nM.
For the compound `Clc1ccc(NCc2ccc(OCCCN3CCCCC3)cc2)cc1` [Example 85, (4-Chloro-phenyl)-[4-(3-piperidin-1-yl-propoxy)-benzyl]-amine], the inhibitory constant (Ki) under setting [1] came out at 23 nM.
As to `c1ccc(CN2CCN(c3ccc(OCCCN4CCCCC4)cc3)CC2)cc1` [Example 27, 1-Benzyl-4-[4-(3-piperidin-1-yl-propoxy)-phenyl]-piperazine], under setting [2], the inhibitory constant (Ki) was found to be 3 nM.
For `Clc1ccc(N2CC3CC2CN3Cc2ccc(OCCCN3CCCCC3)cc2)cc1` (stereo not drawn) [Example 55, 2-(4-Chloro-phenyl)-5-[4-(3-piperidin-1-yl-propoxy)-benzyl]-2,5-diaza-bicyclo[2.2.1]heptane], the inhibition constant (Ki) under setting [1] was determined as 1.4 nM.
On the same count and under the same terms, to `CCN(Cc1ccncc1)Cc1ccc(OCCCN2CCCCC2)cc1` [Example 79, Ethyl-[4-(3-piperidin-1-yl-propoxy)-benzyl]-pyridin-4-ylmethyl-amine] belongs 1.3 nM; to `CCN(CC)CCOc1ccc(CN2CCCCC2)cc1` [Example 81, Diethyl-[2-(4-piperidin-1-ylmethyl-phenoxy)-ethyl]-amine], 140 nM.
The same measure, in the same setting: to `c1cc(OCCN2CCCCC2)ccc1CN1CCCCC1` [Example 20, 1-[2-(4-Piperidin-1-ylmethyl-phenoxy)-ethyl]-piperidine] belongs 5 nM.
Still for that read-out and setting: to `c1ccc(-c2ccc(OCCCN3CCCCC3)cc2)c(CN2CCCCC2)c1` [Example 34, 1-[3-(2′-Piperidin-1-ylmethyl-biphenyl-4-yloxy)-propyl]-piperidine] belongs 1.5 nM; to `NC(=O)C1CCN(Cc2ccc(OCCCN3CCCCC3)cc2)CC1` [Example 57, 1-[4-(3-Piperidin-1-yl-propoxy)-benzyl]-piperidine-4-carboxylic acid amide], 1 nM; to `c1ccc(N2CCN(Cc3ccc(OCCCN4CCCCC4)cc3)CC2)cc1` [Example 91, 1-Phenyl-4-[4-(3-piperidin-1-yl-propoxy)-benzyl]-piperazine], 1 nM.
With `CC(C)N1CCN(c2ccc(OCCCN3CCCCC3)cc2)CC1` [Example 26, 1-Isopropyl-4-[4-(3-piperidin-1-yl-propoxy)-phenyl]-piperazine], under setting [1], the Ki came out at 0.3 nM.
For the compound `c1ccc(CCCC2CCN(Cc3ccc(OCCCN4CCCCC4)cc3)CC2)cc1` [Example 58, 1-[4-(3-Piperidin-1-yl-propoxy)-benzyl]-4-(3-phenyl-propyl)-piperidine], the Ki under setting [1] was 1.9 nM.
For the compound `OC1CCN(Cc2ccc(OCCCN3CCCCC3)cc2)CC1` [Example 89, 1-[4-(3-Piperidin-1-yl-propoxy)-benzyl]-piperidin-4-ol], affinity was put at a Ki of 0.6 nM.
For the compound `CC1CCCCN1CCCOc1ccc(CN2CCCCC2)cc1` (stereo not drawn) [Example 73, 2-Methyl-1-[3-(4-piperidin-1-ylmethyl-phenoxy)-propyl]-piperidine], the Ki under setting [1] is 1.1 nM.
For the compound `c1cc(OCCCN2CCCCC2)ccc1CNC1CC1` [Example 50, Cyclopropyl-[4-(3-piperidin-1-yl-propoxy)-benzyl]-amine], the Ki under setting [1] came out at 1 nM.
As for `c1ccc2c(c1)CCC2NCc1ccc(OCCCN2CCCCC2)cc1` (stereo not drawn) [Example 47, Indan-1-yl-[4-(3-piperidin-1-yl-propoxy)-benzyl]-amine], the inhibition constant (Ki) under setting [1] stood at 1 nM.

A word on the Ki: it is a dissociation constant, usually derived from enzyme kinetics or from competition with a known ligand.
